Experimental data published in patent US8084589B2, “Phosphoramidite nucleoside analogs” (University of Massachusetts, priority 2007, dated 2011).
Strand notation (5' to 3'): a small letter for the sugar, then the base; units joined by * are phosphorothioate-linked, units joined directly phosphodiester-linked; [ ] holds rarer units or linkages, { } end groups; capitals alone tell only the bases. [TEGam] = internucleoside phosphate triester carrying a triethylene glycol amino linker (free amine, native form); {Y} = hydroxypropyldithiopropyl phosphate linker, HOCH2CH2SSCH2CH2CH2O-P(O)(OH)-; d = 2'-deoxy (DNA)

Experiments:
[1] = Melting temperature of oligonucleotide duplexes (UV, FRET loss or dequenching); format: physicochemical; conditions: for Melting point, ° C, method: Table 5, method UV
Protocol: Watson-Crick base paring properties of the modified oligonucleotides were evaluated by comparison of melting temperatures of a duplex formed between the amino-functionalized oligonucleotide CGG AAA GT*C CCT CAT AGC T (I, SEQ ID NO: 1) and its complementary unmodified oligonucleotide 3′[…] 5′ (Duplex 1, SEQ ID NO:5) and a control, unmodified duplex with the same sequence (Duplex 2). The melting temperatures were almost equal, i.e. 65 and 66° C. for Duplexes 1 and 2, respectively.
The conjugates were characterized by HPLC analysis, mass spectrometry and UV/VIS spectroscopy. Briefly, spectral measurements were performed using a Cary 50 Bio UV-visible spectrophotometer. Melting temperatures were determined with a step-wise Peltier temperature ramping bath in 2 degree mode in a temperature-controlled cuvette holder. Electrospray mass spectrometry (MS) was performed with a LTQ Linear Ion trap mass spectrometer (Thermo, Inc) with use of a Nanomate (Advion, Inc.) robot. Spectra were obtained in the negative ion mode with 1.8 kV spray voltage and 0.8 PSI back pressure (UMMS Proteomic and Mass Spectrometry Core Facility, University of Massachusetts Medical School, Worcester, Mass.). Sample solutions were adjusted to 75% methanol before MS analysis. The full mass spectra were acquired for 30 seconds from m/z 400-2000 using 2 ms scans and 10 ms maximum injection time.
The synthesized ODN duplex probes were characterized by comparing melting temperatures of native, non-modified ODN pair to those duplexes prepared by using covalently labeled ODNs.
The FRET between Cy5.5 and the acceptor on complementary ODN was observed after Cy5.5-ODN3 was incubated with Cy7- or 800CW-linked to ODN2 (see FIGS. 20A-B). […] In the presence of internucleoside phosphate-linked Cy7 on the complementary strand it was observed more than 10 times lower fluorescence of Cy5.5 measured at 700 nm (λex=675 nm) and a 3-fold higher fluorescence of Cy7 (if compared to the duplex formed between Cy7-ODN2 and ODN3), FIGS. 20A-D. The formation of duplexes and reversible FRET effects were further studied in more detail by following sigmoidal dependence of the temperature-dependent increase of Cy5.5 fluorescence in a microcuvette of a spectrofluorometer. These experiments enabled measurement of two parameters: melting temperatures and the overall FRET efficacy (Table 5).

[2] = Storage stability of synthon 2 (coupling efficiency on the synthesizer); format: physicochemical; conditions: for coupling yield of the monomer: in anhydrous acetonitrile at room temperature, 3 minutes coupling
Protocol: Usually the compound was dissolved in anhydrous acetonitrile under argon and was kept on the synthesizer for up to two weeks at room temperature. The coupling yield of the monomer for the 3 minutes coupling duration was 98-99% after 7-8 days, and for the same coupling conditions coupling yield decreased to 90% after additional 10-12 days. Coupling yields were assessed using a DMTr detector reading on the synthesizer.

NF-κB p50 = target: T1, NF-κB p50 (Homo sapiens, UniProt P19838); assay: EMSA of recombinant p50 binding to fluorescent duplexes; conditions: both Cy5.5-800CW and Cy5.5-Cy7 donor/acceptor pairs
T1 sequence (P19838 1-433 limits assumed): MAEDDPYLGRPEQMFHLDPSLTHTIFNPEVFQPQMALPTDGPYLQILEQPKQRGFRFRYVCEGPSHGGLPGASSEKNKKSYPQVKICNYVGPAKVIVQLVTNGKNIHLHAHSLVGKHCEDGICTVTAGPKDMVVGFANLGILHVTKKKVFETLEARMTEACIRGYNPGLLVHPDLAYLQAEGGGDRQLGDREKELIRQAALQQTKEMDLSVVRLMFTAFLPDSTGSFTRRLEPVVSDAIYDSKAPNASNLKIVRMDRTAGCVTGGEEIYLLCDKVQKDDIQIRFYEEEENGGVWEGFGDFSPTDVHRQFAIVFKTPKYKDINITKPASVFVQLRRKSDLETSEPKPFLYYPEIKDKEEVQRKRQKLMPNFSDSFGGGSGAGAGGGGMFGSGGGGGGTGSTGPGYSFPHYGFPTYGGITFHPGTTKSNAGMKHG
From the text: The binding of NF-κB p50 to duplexes was initially followed by using two methods: 1) electrophoretic mobility shift essay (EMSA) in polyacrylamide gels; 2) fluorescence energy transfer loss measurements after adding p50 to the duplex in solution. In the first case the components of the mixture are off equilibrium since the free duplex is separated due to a faster migration in electric field during the analysis. The second method afforded measurements at the equilibrium but the observed fluorescence change values are affected by the background fluorescence due to the presence of the free duplex. […] Fluorescence of both free and bound duplex could be imaged by using a transillumination scanner and CCD camera that detected emitted light at two wavelengths—[…] (FIG. 21A) and 800 nm (FIG. 21B, fused image—FIG. 21C). […] However, by comparing Cy5.5-labeled duplexes (ODN2/Cy5.5-ODN3 and ODN4/Cy5.5-ODN5) it was determined that in the case of full-length binding sites 94% of fluorescence co-migrated with p50, whereas only 63% co-migrated with ODN4/Cy5.5-ODN5 duplex (FIG. 21D) at the saturating concentrations of p50 monomer (200 nM).
The half-maximal amount of p50 was 238-300 ng (corresponding to approximately 600 nM). […] A similar trend was observed if 800CW dye was used as Cy5.5 fluorescence acceptor and the differences were also significant (p=0.02).

[3] = Storage stability of oligonucleotide conjugate in water (HPLC); format: physicochemical; conditions: deionized water, −20° C., approximately four months
Protocol: A limited stability study of one of the novel oligonucleotide conjugates, VIII, which contained 800CW dye at the 8th nucleoside from the 5′-end (see Table 2), was performed.

Compound: I/XIX: non-labelled duplex of I and XIX (chain 1 dCdGdGdAdAdAdGdT[TEGam]dCdCdCdTdCdAdTdAdGdCdT; chain 2 dAdGdCdTdAdTdGdAdGdGdGdAdCdTdTdTdCdCdG-{Y})
- Melting point, ° C., (method) ([1]; Table 3, method UV): 64 (UV) ° C.
- Melting point, ° C, method [1]: 64 (UV) ° C

Compound: COc1ccc(C(OC[C@H]2O[C@@H](n3cc(C)c(=O)[nH]c3=O)C[C@@H]2OP(OCCOCCOCCNC(=O)C(F)(F)F)N(C(C)C)C(C)C)(c2ccccc2)c2ccc(OC)cc2)cc1 (stereo partly shown) [synthon 2, 5′-O-DMTr-thymidine-3′-O-(2-(2-(2-trifluoroacetamidoethoxy)-ethoxy)ethyl)-N,N-diisopropylphosphoramidite]
- stability in dry acetonitrile ([2]; dry acetonitrile, on synthesizer, room temperature): stable in dry acetonitrile for at least one week
- coupling yield of the monomer ([2]; after 7-8 days): 98-99%
- coupling yield of the monomer ([2]; after additional 10-12 days): 90%
- stability of dry monomer on storage ([2]; stored six months at −20° C.): no apparent decrease in coupling efficiency

Compound: ODN1/ODN3: non-labeled duplex of ODN1 and ODN3 (chain 1 CGGAAAGTCCCTCATAGCT; chain 2 dAdGdCdTdAdTdGdAdGdGdGdAdCdTdTdTdCdCdG-{Y}; chain 1: unmodified DNA) [reference compound]
- Melting point, ° C, method [1]: 66 (UV) ° C

Compound: ODN4/ODN5: duplex with truncated NF-κB p50 binding site GGAAAG (chain 1 TGGAAAGCTTTTTACAGTT; chain 2 AACTGTAAAAAGCTTTCCA; listed as DNA, chemistry not fully specified)
- Melting point, ° C, method [1]: 61 (UV) ° C
- fluorescence changes in EMSA bands on p50 binding (NF-κB p50): no measurably significant fluorescence changes

Compound: CGGAAAGT^800CWCCCTCATAGCT [VIII]
- stability by HPLC analysis [3]: no signs of degradation
